Six molecules from ChEMBL document CHEMBL5523771, “Hydrazides as Inhibitors of Histone Deacetylases” (J Med Chem, 2024) can be followed below.

Test [1] can be described thus: Inhibition of human HDAC1 (379 to 382 residues) using RHKKAc-AMC as substrate incubated for 60 mins by […] assay.
For test [2], the target named is T1, Histone deacetylase 2 (Homo sapiens, UniProt Q92769). The experiment in a line: Inhibition of human HDAC2.
Test [3] addresses T2, Histone deacetylase 3 (Homo sapiens, UniProt O15379). The experiment in a line: Inhibition of human HDAC3.
Test [4] has as its target T3, Histone deacetylase 1 (Homo sapiens, UniProt Q13547). The experiment in a line: Inhibition of human HDAC1.
Test [5] addresses T3, Histone deacetylase 1. The experiment in a line: Inhibition of HDAC1 (unknown origin).
Test [6] addresses T2, Histone deacetylase 3. The experiment in a line: Inhibition of HDAC3 (unknown origin).
A further test has as its target T4, Histone deacetylase 8 (Homo sapiens, UniProt Q9BY41).
T4 sequence (Q9BY41 whole entry): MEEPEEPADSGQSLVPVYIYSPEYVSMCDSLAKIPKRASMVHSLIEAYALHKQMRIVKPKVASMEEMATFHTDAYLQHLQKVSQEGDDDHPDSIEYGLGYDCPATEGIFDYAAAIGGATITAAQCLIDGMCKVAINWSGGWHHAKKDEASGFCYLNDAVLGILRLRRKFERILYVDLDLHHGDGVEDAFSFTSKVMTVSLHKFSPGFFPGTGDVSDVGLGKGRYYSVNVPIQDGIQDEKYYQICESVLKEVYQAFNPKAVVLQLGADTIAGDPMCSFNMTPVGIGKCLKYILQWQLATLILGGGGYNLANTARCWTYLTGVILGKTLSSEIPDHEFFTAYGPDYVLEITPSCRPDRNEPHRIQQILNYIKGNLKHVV
The experiment in a line: Inhibition of HDAC8 (unknown origin).

For test [7], the target named is T1, Histone deacetylase 2. The experiment in a line: Inhibition of HDAC2 (unknown origin).
A further test deals with Histone deacetylase 4 (Homo sapiens, UniProt P56524). Put plainly: Inhibition of HDAC4 (unknown origin).
Sequence of Histone deacetylase 4 (P56524 whole entry): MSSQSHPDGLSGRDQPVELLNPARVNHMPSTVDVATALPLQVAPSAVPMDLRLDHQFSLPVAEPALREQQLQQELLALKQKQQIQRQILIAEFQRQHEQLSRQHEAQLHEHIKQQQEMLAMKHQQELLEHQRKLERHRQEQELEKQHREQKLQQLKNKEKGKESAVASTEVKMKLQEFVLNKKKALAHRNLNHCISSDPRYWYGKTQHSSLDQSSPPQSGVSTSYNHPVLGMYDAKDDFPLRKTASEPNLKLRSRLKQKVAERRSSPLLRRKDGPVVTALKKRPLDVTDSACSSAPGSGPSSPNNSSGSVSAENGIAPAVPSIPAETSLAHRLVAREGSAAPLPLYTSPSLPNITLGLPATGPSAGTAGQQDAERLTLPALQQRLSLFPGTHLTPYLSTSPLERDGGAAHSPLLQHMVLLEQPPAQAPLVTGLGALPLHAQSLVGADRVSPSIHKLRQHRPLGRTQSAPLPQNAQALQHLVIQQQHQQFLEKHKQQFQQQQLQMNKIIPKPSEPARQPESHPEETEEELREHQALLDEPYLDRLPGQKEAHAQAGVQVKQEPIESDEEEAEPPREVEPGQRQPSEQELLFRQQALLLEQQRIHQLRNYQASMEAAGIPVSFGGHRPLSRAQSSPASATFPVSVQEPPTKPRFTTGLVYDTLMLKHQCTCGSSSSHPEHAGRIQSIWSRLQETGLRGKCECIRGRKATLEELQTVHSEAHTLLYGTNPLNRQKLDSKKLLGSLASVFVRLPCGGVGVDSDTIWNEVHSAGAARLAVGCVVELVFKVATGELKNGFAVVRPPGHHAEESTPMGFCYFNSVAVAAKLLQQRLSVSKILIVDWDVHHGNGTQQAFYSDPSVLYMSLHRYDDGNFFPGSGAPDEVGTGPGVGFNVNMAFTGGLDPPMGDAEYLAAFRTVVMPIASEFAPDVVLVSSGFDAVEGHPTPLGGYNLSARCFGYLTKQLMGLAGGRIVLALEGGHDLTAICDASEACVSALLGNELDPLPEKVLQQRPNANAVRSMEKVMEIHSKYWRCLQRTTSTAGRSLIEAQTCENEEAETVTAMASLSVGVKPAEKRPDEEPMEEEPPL
In test [8] the target is T5, Protein deacetylase HDAC6 (Homo sapiens, UniProt Q9UBN7).
T5 sequence (Q9UBN7 whole entry): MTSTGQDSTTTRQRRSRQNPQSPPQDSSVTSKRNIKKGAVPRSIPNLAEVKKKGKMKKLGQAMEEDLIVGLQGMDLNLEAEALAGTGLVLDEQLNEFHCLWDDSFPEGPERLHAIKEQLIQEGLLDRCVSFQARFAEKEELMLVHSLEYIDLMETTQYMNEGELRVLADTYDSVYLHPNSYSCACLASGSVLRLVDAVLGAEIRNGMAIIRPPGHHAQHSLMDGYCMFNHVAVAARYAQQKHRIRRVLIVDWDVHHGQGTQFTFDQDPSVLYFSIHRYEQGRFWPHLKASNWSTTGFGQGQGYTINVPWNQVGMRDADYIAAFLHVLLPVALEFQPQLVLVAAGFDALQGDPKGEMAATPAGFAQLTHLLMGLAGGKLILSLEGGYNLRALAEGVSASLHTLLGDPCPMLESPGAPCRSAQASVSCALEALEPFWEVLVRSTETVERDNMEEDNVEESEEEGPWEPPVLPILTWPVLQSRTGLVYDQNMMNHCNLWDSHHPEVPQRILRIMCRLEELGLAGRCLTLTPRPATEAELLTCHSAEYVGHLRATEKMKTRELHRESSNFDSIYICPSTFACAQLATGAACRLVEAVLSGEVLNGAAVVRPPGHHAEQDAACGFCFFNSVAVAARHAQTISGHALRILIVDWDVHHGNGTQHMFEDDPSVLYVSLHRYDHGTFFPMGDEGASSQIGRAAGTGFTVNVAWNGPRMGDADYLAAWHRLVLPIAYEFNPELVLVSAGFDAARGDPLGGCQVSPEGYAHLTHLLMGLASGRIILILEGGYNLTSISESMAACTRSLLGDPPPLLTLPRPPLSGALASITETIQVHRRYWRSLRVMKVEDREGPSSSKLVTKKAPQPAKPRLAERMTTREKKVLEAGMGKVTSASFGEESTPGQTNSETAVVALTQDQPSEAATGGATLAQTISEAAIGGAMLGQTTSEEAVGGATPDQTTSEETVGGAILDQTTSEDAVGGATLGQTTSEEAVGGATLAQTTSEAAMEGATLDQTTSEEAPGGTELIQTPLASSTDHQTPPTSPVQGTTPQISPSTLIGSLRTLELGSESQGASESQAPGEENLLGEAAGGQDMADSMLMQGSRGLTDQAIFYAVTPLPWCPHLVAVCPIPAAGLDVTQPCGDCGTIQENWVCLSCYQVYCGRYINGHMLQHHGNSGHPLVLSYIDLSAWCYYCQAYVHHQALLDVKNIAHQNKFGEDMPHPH
The experiment in a line: Inhibition of HDAC6 (unknown origin).

In the next test the target is T6, Histone deacetylase 11 (Homo sapiens, UniProt Q96DB2).
T6 sequence (Q96DB2 whole entry): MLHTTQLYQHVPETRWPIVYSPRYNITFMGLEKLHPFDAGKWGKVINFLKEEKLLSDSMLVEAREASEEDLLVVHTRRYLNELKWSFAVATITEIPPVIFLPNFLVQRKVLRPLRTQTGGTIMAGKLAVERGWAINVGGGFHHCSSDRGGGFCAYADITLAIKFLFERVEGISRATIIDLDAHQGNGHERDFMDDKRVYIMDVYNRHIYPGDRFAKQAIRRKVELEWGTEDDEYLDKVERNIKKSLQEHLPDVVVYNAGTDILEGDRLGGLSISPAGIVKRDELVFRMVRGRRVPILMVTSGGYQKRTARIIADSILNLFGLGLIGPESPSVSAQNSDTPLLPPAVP
The experiment in a line: Inhibition of human recombinant full length FLAG-tagged HDAC11 transfected in HEK293T cells using Ac-ETDKrnyr-AMC as substrate incubated for 30 mins by fluorescence based analysis.

T3 sequence (Q13547 whole entry): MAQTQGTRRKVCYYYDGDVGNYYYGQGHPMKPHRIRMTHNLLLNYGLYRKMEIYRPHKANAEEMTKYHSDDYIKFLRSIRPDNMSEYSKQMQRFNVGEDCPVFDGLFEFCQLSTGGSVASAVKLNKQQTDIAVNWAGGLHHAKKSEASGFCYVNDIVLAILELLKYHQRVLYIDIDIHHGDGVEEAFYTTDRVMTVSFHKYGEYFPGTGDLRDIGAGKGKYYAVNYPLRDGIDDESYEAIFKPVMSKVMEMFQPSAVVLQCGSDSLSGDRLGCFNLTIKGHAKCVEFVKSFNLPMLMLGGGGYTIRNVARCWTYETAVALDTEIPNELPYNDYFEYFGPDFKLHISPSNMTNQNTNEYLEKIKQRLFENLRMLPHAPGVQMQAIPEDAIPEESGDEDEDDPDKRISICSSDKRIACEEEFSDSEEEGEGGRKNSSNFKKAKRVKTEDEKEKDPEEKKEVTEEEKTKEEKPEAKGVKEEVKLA
T2 sequence (O15379 whole entry): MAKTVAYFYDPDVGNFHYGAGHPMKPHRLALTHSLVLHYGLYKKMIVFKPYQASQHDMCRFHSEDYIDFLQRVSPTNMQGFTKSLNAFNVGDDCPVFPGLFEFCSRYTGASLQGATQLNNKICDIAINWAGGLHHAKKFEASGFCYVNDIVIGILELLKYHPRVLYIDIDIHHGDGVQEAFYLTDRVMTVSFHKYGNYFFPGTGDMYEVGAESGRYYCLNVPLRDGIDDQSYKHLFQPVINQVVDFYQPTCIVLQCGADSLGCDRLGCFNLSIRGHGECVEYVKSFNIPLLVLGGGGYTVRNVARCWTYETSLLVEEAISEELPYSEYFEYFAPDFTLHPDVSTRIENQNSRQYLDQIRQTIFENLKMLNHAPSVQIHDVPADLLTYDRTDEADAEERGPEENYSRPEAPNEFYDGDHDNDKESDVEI
T1 sequence (Q92769 whole entry): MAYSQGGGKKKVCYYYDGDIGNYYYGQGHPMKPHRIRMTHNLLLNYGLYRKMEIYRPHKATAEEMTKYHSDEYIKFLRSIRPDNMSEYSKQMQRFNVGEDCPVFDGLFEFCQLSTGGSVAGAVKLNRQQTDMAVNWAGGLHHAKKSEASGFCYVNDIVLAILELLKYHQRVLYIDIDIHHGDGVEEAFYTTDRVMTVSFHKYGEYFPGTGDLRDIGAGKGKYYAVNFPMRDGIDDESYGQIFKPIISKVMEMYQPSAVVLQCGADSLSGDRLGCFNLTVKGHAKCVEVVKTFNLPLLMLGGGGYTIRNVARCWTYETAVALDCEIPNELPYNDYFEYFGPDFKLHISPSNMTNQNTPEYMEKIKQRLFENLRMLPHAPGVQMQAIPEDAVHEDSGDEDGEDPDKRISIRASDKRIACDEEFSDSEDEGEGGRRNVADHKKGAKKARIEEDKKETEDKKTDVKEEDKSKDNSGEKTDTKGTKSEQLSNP

`CCCCNNC(=O)c1ccc(Br)cc1`: the IC50 – broadly, the concentration that inhibits the measured activity by half – in [1] was found to be 133 nM.

Turning to `CCCNNC(=O)CCCCCCC(=O)Nc1ccccc1`, the IC50 at Histone deacetylase 2 [2] was determined as 530 nM; against Histone deacetylase 3 [3] it was 379 nM; at Histone deacetylase 1 [4] it was 828 nM.

For `CCCC(CCC)C(=O)N[C@@H](Cc1ccccc1)C(=O)NNc1ccccc1`, the IC50 came to 390 nM against Histone deacetylase 1 [5]; 1490 nM at Histone deacetylase 3 [6]; 1540 nM against Histone deacetylase 8; 2020 nM against Histone deacetylase 2 [7]; 3180 nM against Histone deacetylase 4.

At Histone deacetylase 4, `CCCC(CCC)C(=O)O` [VALPROIC ACID] returned an IC50 of more than 100000 nM.

With `CCCNNC(=O)c1ccc(Nc2nccc(N(C)c3ccc4c(C)n(C)cc4c3)n2)cc1`, the IC50 at Histone deacetylase 1 [5] was 0.42 nM; in test [8] it was 8960 nM.

Turning to `CCCCCCCCCCCCCCCCNNC(=O)c1ccc(N(C)C)cc1`, the IC50 on Histone deacetylase 11 came to 910 nM.
